Experimental data: patent US8906933B2, “Dihydropyrimidin-2(1H)-one compounds as neurokinin-3 receptor antagonists” (N30 Pharmaceuticals, Inc., priority 2010, dated 2014)
Where two headings read alike, the source gives them in different places.

Tests used:
human NK3 receptor [1] = biological target: T1, human NK3 receptor (Homo sapiens (Human), UniProt P29371); experiment: Human NK3 receptor binding assay at 10 μM; details: 10 μM test compound, [3H]SR142801, CHO cell membranes
Experimental: Antagonist activity was evaluated at a concentration of 10 μM for a representative subset of test compounds, and the results were expressed as the percent inhibition at that concentration.
Each test compound was evaluated at a single concentration of 10 μM. […] The results are expressed as a percent of control specific binding ((measured specific binding/control specific binding)×100) obtained in the presence of the test compounds.

human NK3 receptor [2] = biological target: T1, human NK3 receptor; experiment: biochemical
human NK3 receptor [3] = biological target: T1, human NK3 receptor; experiment: Human NK3 receptor binding assay at 1 uM; details: 1 μM test compound; [3H]SR142801, CHO cell membranes; read-out: percent inhibition at 1 μM
Experimental: Antagonist activity was evaluated at a concentration of 1 μM for a representative subset of test compounds, and the results were expressed as the percent inhibition at that concentration.
Each test compound was evaluated at a single concentration of 1 μM. […] The results are expressed as a percent of control specific binding ((measured specific binding/control specific binding)×100) obtained in the presence of the test compounds.

[4] = read-out: percent inhibition at 10 μM
[5] = read-out: NK3, % inhibition @ 10 μM

T1 sequence (P29371 whole entry): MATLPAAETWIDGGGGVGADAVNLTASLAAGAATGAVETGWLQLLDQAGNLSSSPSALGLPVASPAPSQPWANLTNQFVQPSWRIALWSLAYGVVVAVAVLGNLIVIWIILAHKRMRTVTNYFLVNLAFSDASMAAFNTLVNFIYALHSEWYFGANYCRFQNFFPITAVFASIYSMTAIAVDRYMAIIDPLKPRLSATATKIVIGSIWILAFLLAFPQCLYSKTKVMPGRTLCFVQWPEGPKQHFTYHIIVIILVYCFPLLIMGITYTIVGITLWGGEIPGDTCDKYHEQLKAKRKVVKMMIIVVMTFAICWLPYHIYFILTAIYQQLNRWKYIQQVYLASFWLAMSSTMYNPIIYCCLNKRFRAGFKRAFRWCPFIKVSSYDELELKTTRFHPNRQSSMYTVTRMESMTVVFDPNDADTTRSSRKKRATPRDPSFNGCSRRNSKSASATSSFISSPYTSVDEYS

| inhibition at 10 µM (human NK3 receptor [1]; [4]) [%] | inhibition at 1 µM (human NK3 receptor [3]) [%] | SMILES | also measured |
| --- | --- | --- | --- |
| > 50 |  | CCOc1cc(C2NC(=O)NC(c3ccoc3)=C2c2ccccc2)cc([N+](=O)[O-])c1O (stereo not drawn) [4-(3-ethoxy-4-hydroxy-5-nitrophenyl)-6-(furan-3-yl)-5-phenyl-3,4-dihydropyrimidin-2(1H)-one] |  |
| > 50 |  | CCOc1cc(C2NC(=O)NC(c3ccccc3)=C2c2cccc(C#N)c2)cc([N+](=O)[O-])c1O (stereo not drawn) [3-(4-(3-ethoxy-4-hydroxy-5-nitrophenyl)-2-oxo-6-phenyl-1,2,3,4-tetrahydropyrimidin-5-yl)benzonitrile] |  |
|  |  | CCOc1cc([C@H]2NC(=O)NC(c3ccccc3)=C2c2ccccc2)cc([N+](=O)[O-])c1O [(R)-4-(3-ethoxy-4-hydroxy-5-nitrophenyl)-5,6-diphenyl-3,4-dihydropyrimidin-2(1H)-one] | IC50 (human NK3 receptor [2]): 110 nM |
|  |  | CCOc1cc([C@@H]2NC(=O)NC(c3ccccc3)=C2c2ccccc2)cc([N+](=O)[O-])c1O [4-(3-ethoxy-4-hydroxy-5-nitrophenyl)-5,6-diphenyl-3,4-dihydropyrimidin-2(1H)-one] | IC50 (human NK3 receptor [2]): 19000 nM |
| > 50 | > 50 | COCCOc1cc(C2NC(=O)NC(c3ccccc3)=C2c2ccccc2)cc([N+](=O)[O-])c1O (stereo not drawn) [4-(4-hydroxy-3-(2-methoxyethoxy)-5-nitrophenyl)-5,6-diphenyl-3,4-dihydropyrimidin-2(1H)-one] |  |
| > 50 |  | CCOc1cc(C2NC(=O)NC(c3ccsc3)=C2c2ccccc2)cc([N+](=O)[O-])c1O (stereo not drawn) [4-(3-ethoxy-4-hydroxy-5-nitrophenyl)-5-phenyl-6-(thiophen-3-yl)-3,4-dihydropyrimidin-2(1H)-one] |  |
| > 50 |  | CCOc1cc(C2NC(=O)NC(c3ccccc3)=C2c2ccccc2)cc([N+](=O)[O-])c1O (stereo not drawn) [4-(3-ethoxy-4-hydroxy-5-nitrophenyl)-5,6-diphenyl-3,4-dihydropyrimidin-2(1H)-one] | inhibition at 10 µM (human NK3 receptor [1]; [5]): 88% |
| > 50 |  | CCOc1cc(C2NC(=O)NC(c3ccccc3)=C2c2ccsc2)cc([N+](=O)[O-])c1O (stereo not drawn) [4-(3-ethoxy-4-hydroxy-5-nitrophenyl)-6-phenyl-5-(thiophen-3-yl)-3,4-dihydropyrimidin-2(1H)-one] | inhibition at 10 µM (human NK3 receptor [1]; [5]): 97% |
| > 50 |  | CCOc1cc(C2NC(=O)NC(c3ccccc3)=C2c2cccs2)cc([N+](=O)[O-])c1O (stereo not drawn) [4-(3-ethoxy-4-hydroxy-5-nitrophenyl)-6-phenyl-5-(thiophen-2-yl)-3,4-dihydropyrimidin-2(1H)-one] |  |
|  |  | CCOc1cc([C@H]2NC(=O)NC(c3cccnc3)=C2c2ccccc2)cc([N+](=O)[O-])c1O [(R)-4-(3-ethoxy-4-hydroxy-5-nitrophenyl)-5-phenyl-6-(pyridin-3-yl)-3,4-dihydropyrimidin-2(1H)-one] | IC50 (human NK3 receptor [2]): 700 nM |
| > 50 |  | CCOc1cc(C2NC(=O)NC(c3cccnc3)=C2c2ccccc2)cc([N+](=O)[O-])c1O (stereo not drawn) [4-(3-ethoxy-4-hydroxy-5-nitrophenyl)-5-phenyl-6-(pyridin-3-yl)-3,4-dihydropyrimidin-2(1H)-one] | inhibition at 10 µM (human NK3 receptor [1]; [5]): 92% |
| > 50 | > 50 | CCOc1cc(C2NC(=O)NC(c3ccc(Cl)c(F)c3)=C2c2ccccc2)cc([N+](=O)[O-])c1O (stereo not drawn) [6-(4-chloro-3-fluorophenyl)-4-(3-ethoxy-4-hydroxy-5-nitrophenyl)-5-phenyl-3,4-dihydropyrimidin-2(1H)-one] |  |
| > 50 | > 50 | COc1cc(C2NC(=O)NC(c3ccccc3)=C2c2ccccc2)cc([N+](=O)[O-])c1O (stereo not drawn) [4-(4-hydroxy-3-methoxy-5-nitrophenyl)-5,6-diphenyl-3,4-dihydropyrimidin-2(1H)-one] |  |
| > 50 |  | O=C1NC(c2ccccc2)=C(c2ccccc2)C(c2cc(Cl)c(O)c([N+](=O)[O-])c2)N1 (stereo not drawn) [4-(3-chloro-4-hydroxy-5-nitrophenyl)-5,6-diphenyl-3,4-dihydropyrimidin-2(1H)-one] |  |
| > 50 |  | CCOc1cc(C2NC(=O)NC(c3cccnc3)=C2c2ccsc2)cc([N+](=O)[O-])c1O (stereo not drawn) [4-(3-ethoxy-4-hydroxy-5-nitrophenyl)-6-(pyridin-3-yl)-5-(thiophen-3-yl)-3,4-dihydropyrimidin-2(1H)-one] | inhibition at 10 µM (human NK3 receptor [1]; [5]): 63% |
| > 50 |  | CCOc1cc(C2NC(=O)NC(c3ccn(C)n3)=C2c2ccsc2)cc([N+](=O)[O-])c1O (stereo not drawn) [4-(3-ethoxy-4-hydroxy-5-nitrophenyl)-6-(1-methyl-1H-pyrazol-3-yl)-5-(thiophen-3-yl)-3,4-dihydropyrimidin-2(1H)-one] | inhibition at 10 µM (human NK3 receptor [1]; [5]): 61% |
| > 50 | > 50 | CCOc1cc(C2NC(=O)NC(c3ccccc3)=C2c2ccccc2F)cc([N+](=O)[O-])c1O (stereo not drawn) [4-(3-ethoxy-4-hydroxy-5-nitrophenyl)-5-(2-fluorophenyl)-6-phenyl-3,4-dihydropyrimidin-2(1H)-one] |  |
|  | > 50 | CCOc1cc(C2NC(=O)NC(c3ccc(Cl)cc3)=C2c2ccccc2)cc([N+](=O)[O-])c1O (stereo not drawn) [6-(4-chlorophenyl)-4-(3-ethoxy-4-hydroxy-5-nitrophenyl)-5-phenyl-3,4-dihydropyrimidin-2(1H)-one] |  |
| > 50 | > 50 | CCOc1cc(C2NC(=O)NC(c3cccc(OC)c3)=C2c2ccccc2)cc([N+](=O)[O-])c1O (stereo not drawn) [4-(3-ethoxy-4-hydroxy-5-nitrophenyl)-6-(3-methoxyphenyl)-5-phenyl-3,4-dihydropyrimidin-2(1H)-one] |  |
| > 50 |  | CCOc1cc(C2NC(=O)NC(c3cccs3)=C2c2ccccc2)cc([N+](=O)[O-])c1O (stereo not drawn) [4-(3-ethoxy-4-hydroxy-5-nitrophenyl)-5-phenyl-6-(thiophen-2-yl)-3,4-dihydropyrimidin-2(1H)-one] |  |
|  | > 50 | CCOc1cc(C2NC(=O)NC(c3ccccc3)=C2c2ccc(Cl)cc2)cc([N+](=O)[O-])c1O (stereo not drawn) [5-(4-chlorophenyl)-4-(3-ethoxy-4-hydroxy-5-nitrophenyl)-6-phenyl-3,4-dihydropyrimidin-2(1H)-one] |  |
| > 50 |  | CCOc1cc(C2NC(=O)NC(c3cnn(C)c3)=C2c2ccsc2)cc([N+](=O)[O-])c1O (stereo not drawn) [4-(3-ethoxy-4-hydroxy-5-nitrophenyl)-6-(1-methyl-1H-pyrazol-4-yl)-5-(thiophen-3-yl)-3,4-dihydropyrimidin-2(1H)-one] |  |
|  | > 50 | CCOc1cc(C2NC(=O)NC(c3ccccc3)=C2c2ccc(F)c(F)c2)cc([N+](=O)[O-])c1O (stereo not drawn) [5-(3,4-difluorophenyl)-4-(3-ethoxy-4-hydroxy-5-nitrophenyl)-6-phenyl-3,4-dihydropyrimidin-2(1H)-one] |  |
|  | > 50 | CCOc1cc(C2NC(=O)NC(c3cccc(Cl)c3)=C2c2ccccc2)cc([N+](=O)[O-])c1O (stereo not drawn) [6-(3-chlorophenyl)-4-(3-ethoxy-4-hydroxy-5-nitrophenyl)-5-phenyl-3,4-dihydropyrimidin-2(1H)-one] |  |
|  | > 50 | CCOc1cc(C2NC(=O)NC(c3ccccc3)=C2c2cccc(F)c2)cc([N+](=O)[O-])c1O (stereo not drawn) [4-(3-ethoxy-4-hydroxy-5-nitrophenyl)-5-(3-fluorophenyl)-6-phenyl-3,4-dihydropyrimidin-2(1H)-one] |  |
|  | > 50 | CCOc1cc(C2NC(=O)NC(c3ccc(F)cc3)=C2c2ccccc2)cc([N+](=O)[O-])c1O (stereo not drawn) [4-(3-ethoxy-4-hydroxy-5-nitrophenyl)-6-(4-fluorophenyl)-5-phenyl-3,4-dihydropyrimidin-2(1H)-one] |  |
